This experiment relates to Mycobacterium tuberculosis non-replicating, growth inhibition. The experiment can be described thus: growth inhibition of non-replicating M. tuberculosis (AID 488890).

Molecules are shown by their SMILES. Inconclusive results are not listed. The source made the active and inactive calls. The rule behind the calls is not given here. A value given as a limit tells only on which side of the number the result lay.

Regarding `Cc1ccnc(NC(=O)c2cc3ccccc3o2)c1`, the IC50 (usually the concentration that inhibits the measured activity by half) is 4.74 µM.

In the case of `Cc1ccc(CSCCNC(=O)c2cccc([N+](=O)[O-])c2)cc1`, the IC50 is 18.4 µM (inactive).

Turning to `CN(C)CC/C=C1/c2ccc(F)cc2Sc2ccc(Cl)cc21`, the IC50 was 8.11 µM. On to `CSC1=N/C(=C\c2ccc3c(c2)OCO3)C(=O)S1`, for which the IC50 was 4.95 µM. `CCOC(=O)c1ccc(N=CC2=C(O)CC(C)(C)CC2=O)cc1`: the IC50 was 3.85 µM. Next, `O=C(c1ccc([N+](=O)[O-])o1)N1CCN(c2nc3ccc(F)cc3s2)CC1`: less than 0.1 µM. For the molecule `Clc1c(OCCCn2ccnc2)ccc2ccccc12`, the IC50 was 9.74 µM. Take `O=C(CC1CCCCC1)NCc1ccccc1`: the IC50 was 5.92 µM. The value for `Cc1cc(C)nc(/N=C(\N)Nc2ccc(-c3ccccc3)cc2)n1` was 3.5 µM. Consider `Oc1c(C(c2ccccc2Cl)N2CCCC2)ccc2cccnc12` (configuration not stated), for which the IC50 is 4.68 µM. In the case of `Cc1nc([N+](=O)[O-])c(Br)n1CC(=O)c1ccccc1`, the IC50 is 25.5 µM (inactive).

In the case of `CC(C)(O)C#Cc1ccc(C(=O)Nc2ccc3c(c2)OCO3)s1`, the IC50 is 5.97 µM.

As to `O=C(Nc1sc2c(c1C(=O)O)CCCC2)c1ccc(F)cc1`, the IC50 was 24.3 µM (inactive). Regarding `NC(=O)COC(=O)c1sc2ccccc2c1Cl`, the IC50 is 8.25 µM. Turning to `Cc1cc(C)cc(NC(=O)COC(=O)CC2CCCC2)c1`, the IC50 was 21.5 µM (inactive).

In the case of `Cc1ccc(OCCCCn2ccnc2)c(Cl)c1`, the IC50 is 8.23 µM. `COCCCNC(=O)COC(=O)c1ccc(-c2nc3ccccc3s2)s1`: the IC50 was 5.37 µM.

Regarding `COC(=O)CN(C#N)c1nc(SC)nc(N(C)C)n1`, the IC50 is 15.9 µM (inactive). Consider `Cc1[nH]n(-c2ccc(Cl)cc2)c(=O)c1N=Nc1cccnc1`, for which the IC50 is 1.37 µM. For the molecule `O=C(CCS(=O)(=O)c1ccc(F)cc1)Nc1nc(-c2ccccn2)cs1`, the IC50 is 7.41 µM.

For the molecule `O=C(Nc1nnc(COc2ccc(Cl)cc2)s1)c1ccco1`, the IC50 is 21.4 µM (inactive). Regarding `C/C(=N/NC(=O)c1cccc(C)c1)c1c(O)cc(C)oc1=O`, the 50% inhibitory concentration (IC50) was 9.19 µM. Regarding `Cc1onc(-c2ccccc2)c1C(=O)O/N=C(\N)c1ccc([N+](=O)[O-])o1`, the IC50 was 25.8 µM (inactive). Regarding `COc1ccc(NC(=O)C2COc3ccccc3O2)cc1` (configuration not stated), the IC50 was 4.43 µM. As to `O=C(CCC1CCCCC1)NCc1ccc(F)cc1`, the IC50 was 5.27 µM.

On to `Cc1ncsc1CCOC(=O)c1ccc([N+](=O)[O-])cc1`, for which the IC50 was 10.4 µM (inactive). Consider `Nc1nonc1C(=O)NCCN=Cc1cc(Cc2ccccc2)cc(Br)c1O`, for which the IC50 was 5.63 µM. Take `O=C(OCc1nnc(-c2ccccc2)o1)c1ccc(Br)o1`: the IC50 is 9.14 µM. Regarding `Cc1cccc(C)c1N1C(=O)CC(N2CCSCC2)C1=O` (configuration not stated), the IC50 was 3.44 µM. In the case of `O=C(NNC(=O)C12CC3CC(CC(C3)C1)C2)c1ccccn1`, the IC50 was 6.79 µM. On to `O=C1c2ccccc2-n2c1nc1ccccc1c2=O`, for which the IC50 was 2.8 µM. As for `O=C1c2ccccc2CC1Sc1nnc(-c2ccncc2)o1` (configuration not stated), the IC50 is 23.9 µM (inactive). Regarding `COc1cccc(/C=N/N2C(=O)CSC2=S)c1O`, the IC50 is 23.9 µM (inactive). The value for `CC(/C=C/c1ccccc1)=N\NC(=O)c1ccc2c(c1)OCCO2` was 8.02 µM; that for `Fc1ccc(-c2nnc(CSc3nnc(-c4cccs4)o3)o2)cc1` was 3.68 µM. `Cc1ccc(NC(=O)CN(C)C2CCCCC2)cc1Br`: the IC50 was 0.35 µM.

With `Cc1cccc(NCc2ccc([N+](=O)[O-])s2)c1`, the IC50 is 22.2 µM (inactive). Regarding `O=C(Nc1nnc(-c2ccc(Cl)cc2)o1)C1=COCCO1`, the IC50 was 14 µM (inactive). On to `C/C(Cn1nnc([N+](=O)[O-])n1)=N\NC(=O)c1ccncc1`, for which the IC50 was 1.63 µM. With `Cc1cccc(NC(=O)CCSc2nnc(Cc3ccccc3)o2)c1`, the IC50 was 4.09 µM. Consider `c1ccc2sc(SCc3ccc(-c4nnco4)cc3)nc2c1`, for which the IC50 was 13.2 µM (inactive). Consider `Cc1c(Cl)cccc1-c1ccc(CNCc2ccccn2)o1`, for which the IC50 was 4.58 µM.

Values taken from PubChem BioAssay AID488890 (Southern Research Specialized Biocontainment Screening …, 2010).
